Blank lines part the entries; values can stand above or below the substance they belong to.
What was measured:
rat adipose cells = assay: Glucose transport in adipose cells; assay type: cell-based
Protocol: The biological activity of the peptides were measured by their effect on glucose uptake in rat adipose cells as described (Stagsted et al. (1991) J. Biol. Chem. 266:12844-12847). Briefly, rat adipose cells were obtained from epididymal fat pads and suspended in Krebs-Ringer HEPES buffer (KRH) with 5% bovine serum albumin at a lipocrit of 10% (final). […] Most of the peptides were not tested at higher concentrations than 30 μM.

human insulin receptor = molecular target: T1, human insulin receptor (Homo sapiens, UniProt P06213); assay: Insulin receptor internalization in transfected HeLa cells; assay type: cell-based; details: for effect on insulin receptor internalization (in words): transfected cells, 10 μM peptide
T1 construct: expressed in transfected cells; host or cells: HeLa cells, electroporated; pCR3 expression vector (Invitrogen, catalog no. K3000-01)
Protocol: Insulin Receptor modification and expression. […] K3000-01) was transfected by electroporation into HeLa cells. Methods of electroporation are described in Boggs et al. (1986) Ex. Hematol. 149:988-994. In the transfected cells the receptors show insulin dependent internalization.
Receptor internalization was performed essentially as described in Stagsted et al. (1990) Cell 62:297-307. […] The cells were then diluted with 50 μl of KRHB (pH7.2) (no acid wash) or 50 μl of KRHB (pH 2.0) (acid wash) and incubated on ice for 5 min. The cells were finally harvested by centrifugation on top of silicone oil, and both free and cell-associated radioactivity was measured.

Substance: GNEQSFRVDLRTLLRYAGGGNEQSFRVDLRTLLRYA [DS-A85]
enhancement of glucose uptake (rat adipose cells; insulin + 10 μM peptide (insulin alone 14±3 fold)): 22±4 fold

Substance: KTDSQILKELEESSFRKTFEDYLH [pepIR, human insulin receptor derived peptide]
effect on insulin receptor internalization (in words) (human insulin receptor): inhibits receptor internalization to the same extent as DS-A85
effect on glucose uptake (in words) (rat adipose cells; at maximal insulin stimulation): did not significantly affect glucose uptake

per cent internalized receptor (human insulin receptor; in the presence of 10 μM peptide, time not stated, in the absence of peptide 64±7): 6±9 per cent
Substance: TWLGRQGPEGPSSIPPGTLTTLW [GLUT4pep]
effect on insulin receptor internalization (in words) (human insulin receptor): does not affect insulin receptor internalization

Substance: insulin
enhancement of glucose uptake (rat adipose cells; 10 nM insulin alone): 12±4 fold
enhancement of glucose uptake (rat adipose cells; 10 μM insulin alone): 14±3 fold

Source: patent US6346390B1, “Receptor derived peptides involved in modulation of response to ligand binding” (Receptron, Inc., priority 1996, dated 2002)
